Source: patent US12201694B2, “Hydrogel compositions” (Hyderabad Eye Institute, priority 2018, dated 2025)
In brackets after ≈: the same amount, converted by molar mass.

What was measured:
[1] = test system: C. albicans ATCC90028; assay: Minimal inhibitory concentration (MIC), no visible growth after 16 h; type: cell-based, Candida albicans
Description: (§1) C. albicans cells, laboratory strain SC5314 or ATCC90028, were cultured on solid BHI (Oxoid) medium at 37° C. for 24 hours and stored at 4° C. for up to one month. Prior to experiments, a colony of C. albicans was sub-cultured into liquid BHI medium overnight at 37° C. Overnight cultures of C.albicans were adjusted to an optical density at 600 nm of 0.1 and incubated with Amphotericin polymers, which were serially diluted 1:2 from 2500-2.44 μg/ml, for 16 hours in a 96 well plate. The concentration of polymer at which there was no visible growth was determined to be the MIC. C.albicans (Robin) ATCC200955, C.tropicalis ATCC200956, A.flavus ATCC16883 and F. keratoplasticum ATCC36031 were similarly cultured on solid Sabrauds (Oxoid) medium at 37° C. for 24 hours and stored at 4° C. for up to one month. Prior to experiments, colonies were sub-cultured into liquid Sabrauds medium overnight at 37° C. All liquid cultures were static apart from A.flavus which was incubated shaking at 100 rpm.

[2] = test system: C. albicans SC5314; assay: as above; type: cell-based, Candida albicans
Description: as §1

[3] = test system: C. albicans ATCC200955; assay: Minimal inhibitory concentration (MIC); type: cell-based, Candida albicans; conditions: C. albicans ATCC200955 (Amp-B non-sensitive)
Description: as §1

[4] = test system: C. tropicalis ATCC200956; assay: Minimal inhibitory concentration (MIC); type: cell-based, Candida tropicalis; conditions: C. tropicalis ATCC200956 (Amp-B non-sensitive)
Description: as §1, with “Overnight cultures of C.albicans were adjusted to an optical density at 600 nm of 0.1 and incubated with Amphotericin polymers, which were serially diluted 1:2 from 2500-2.44 μg/ml, for 16 hours in a 96 well plate.” left out

[5] = test system: A. flavus ATCC16883; assay: Minimal inhibitory concentration (MIC); type: cell-based, Aspergillus flavus; conditions: A. flavus ATCC 16883
Description: as §1

[6] = test system: F. keratoplasticum ATCC36031; assay: Minimal inhibitory concentration (MIC); type: cell-based, Fusarium keratoplasticum; conditions: F. keratoplasticum ATCC 36031
Description: as §1

[7] = physiological pH; well known; cited from earlier work
[8] = literature reference [19]; cited from earlier work
[9] = from weight MIC and molar density

## C[C@@H]1[C@H](O)[C@@H](C)/C=C/C=C/C=C/C=C/C=C/C=C/C=C/[C@H](O[C@@H]2O[C@H](C)[C@@H](O)[C@H](N)[C@@H]2O)C[C@@H]2O[C@](O)(C[C@@H](O)C[C@@H](O)[C@H](O)CC[C@@H](O)C[C@@H](O)CC(=O)O[C@H]1C)C[C@H](O)[C@H]2C(=O)O [Amphotericin B]
[1]; C. albicans ATCC90028
  Weight based MIC: 0.5 µg·mL
[1]; C. albicans ATCC90028, 16 hours
  MIC against ATCC90028: 4 µg/mL (≈ 4.33 µM)
[1]; C. albicans ATCC90028, from weight MIC and molar density
  Molar MIC: 4800 µM
[2]; C. albicans SC5314
  Weight based MIC: 0.4 µg·mL
[2]; C. albicans SC5314, 16 hours
  MIC against SC5314: 0.4 µg/mL (≈ 0.433 µM)
[2]; C. albicans SC5314, from weight MIC and molar density
  Molar MIC: 500 µM
[3]
  Weight based MIC: >2500 µg·mL
[4]
  Weight based MIC: >2500 µg·mL
[5]
  Weight based MIC: 1.5 µg·mL
[5]; [9]
  Molar MIC: 1800 µM
[6]
  Weight based MIC: 0.2 µg·mL
[6]; [9]
  Molar MIC: 250 µM
[7]
  solubility in water and saline solution: insoluble
[8]
  MIC for amphotericin B: 4.68 to 150 µM
